In patent publication US20070009444A1, “Method for preparing powder exhibiting low susceptibility to electrification” (priority 2003, published 2007):

Tests used:
Assay type in all cases: physicochemical
[1] = Observation of spray dried powder (transit performance, coloring, operability)
Procedure: Acetaminophen and PEG4000 were mixed at the following ratio: acetaminophen-PEG4000=2.8 g-701 mg (Mixed ratio 4:1, PEG adding ratio 0.25 (weight of PEG (mg) relative to 1 mg of pharmaceutical active compound)), acetaminophen-PEG4000=2.8 g-351 mg (Mixed ratio 8:1, PEG adding ratio 0.125), acetaminophen-PEG4000=2.8 g-176 mg (Mixed ratio 16:1, PEG adding ratio 0.06), and acetaminophen-PEG4000=14 g-437 mg (Mixed ratio 32:1, PEG adding ratio 0.03). The final concentration of acetaminophen was adjusted to 1.4% by weight by adding suitable amount of water and the solution was spray dried under the conditions mentioned below.
FIG. 1 is a photograph of the acetaminophen powder (PEG adding ratio 0.03) and FIG. 2 is a photograph of the acetaminophen powder(without adding PEG). • Spray drying condition • Spray dryer: Spray dryer SD-1000 (Tokyo Rikakikai Co., Ltd.) • Speed of pump: scale 30 (about 6 mL/min) • IN-let temperature: 170° C. • Out-let temperature: 95 to 100° C. • Drying air volume: 0.60 m^3/min • Spray drying pressure: 70 kPa
Compound (I-1) powder was manufactured by a similar manner to Example 2 except that PEG400 (111 mg) (PEG adding ratio 0.37) was used instead of PEG4000 and the final concentration of Compound (I-1) in the solution was adjusted to 19% by weight. […]

[2] = Measurement of bulk density (3 cc vessel, tapped three times)
Text: As an index for charge suppression of the obtained powder, bulk. density of the powder may be examined rather than measuring surface potential of the powder. […] When the bulk density is not less than 0.25 g/cc, preferably 0.28 g/cc, suction by a machine and transfer from a filling machine to a filling vessel may be conducted favorably, and a certain operability must be secured. The bulk density is a value determined in the manner as described below. First, 3 cc of sample to be measured is put into a vessel, and then the vessel is lightly tapped several to 10 times, preferably about 3 times. When the bulk is reduced, powder is supplemented, and this operation is repeated. At the time when the bulk no longer changes, a sample weight per 1 cc is determined. The bulk density of lowly-charged powder determined in the method of the present invention is 1.5 times or more, preferably 1.6 times or more, and further preferably 1.8 times or more the “bulk density of highly-charged compound”, “bulk density of powder obtained by drying a liquid composition containing a highly-charged compound and an additive other than PEG” or “bulk density of powder obtained by drying a liquid composition containing a pharmaceutically active compound”.
The bulk density of the acetaminophen powder containing PEG4000 (PEG adding ratio 0.03) obtained in Example 1 and the Compound (I-1) powder containing PEG4000 obtained in Example 2 were measured.
The powder was added to a vessel to reach the scale of 3 cc in a dry box and tapped three times. When the bulk is reduced, powder is added to the vessel to reach the scale of 3 cc and the same operation was repeated.
When the bulk no longer changed at 3 cc, addition of the powder was stopped and the bulk density (g/cc) was measured at that time.
Bulk densities of the acetaminophen powder (without adding PEG) and the Compound (I-1) powder (without adding PEG) were measured by the same method as controls.

[3] = Measurement of charge amount (Espartoanalyzer, sample mixed with iron powder 1:9, 500 V); conditions: for Average of charge: average of two measurements
Text: In the present specification, the term “lowly-charged powder” means powder in which negative charge of surface potential is reduced (powder unsusceptible to negative charge) and encompasses positively charged powder. Concretely, it means powder having an average electric charge, measured with a particle charge distribution measuring device (for example, particle charge distribution measuring device using Laser Doppler speed meter), of not less than −2 q/m (namely, electric charge is negative and its absolute value is not more than 2, or electric charge is zero or positive value), preferably of not less than −1 q/m. The average electric charge is preferably not more than +5, more preferably not more than +3, and most preferably not more than +1. Measurement of electric charge may be conducted according to a manual of the device, and a condition and a measuring device are not particularly limited. For instance, after mixing a compound to be measured and iron powder in a ratio of about 1:9, about 1 g of mixture is collected. […]
400 mg of the acetaminophen powder containing PEG4000 (Acetaminophen:PEG=32:1, PEG adding ratio 0.03) obtained in Example 1 and 3600 mg of iron powder (TEFV-200/300 (registered trademark, Powdertech) as a carrier were filled into a glass vessel, and the mixture was mixed by hands for ten seconds. About 1 g of thus-obtained sample (true density of the particles: 1.20 g/cm^3) were collected and the charge amount was measured using Espartoanalyzer (Hosokawa Micron company). […]
Charge amount of the acetaminophen powder (without adding PEG) was measured by the same method as described above as a control (numbers of particles: 500).
Charge amount of each sample was measured twice and the average of the results are shown below.
Charge amount of the following samples were measured by the same method as Experiment 1. • i) 300 mg of Compound (I-1) […]

[4] = Measurement of dissolution time (powder in 10 ml distilled water for injection, vial shaken)
Procedure: The dissolving time is determined by shaking a vessel containing 300 mg of sample to be measured and 10 mL of water. In the case of pharmaceuticals, the sample to be measured should contain 300 mg of pharmaceutically active compound, and may contain a pharmaceutical additive. The shaking manner and time are not particularly limited. Concretely, measurement may be conducted according to the method described in Test example 3 described later.
The Compound (I-1) powder containing PEG (about 300 mg) which was obtained in Example 2 or 3 was filled in a vial (the capacity to the shoulder is 20 ml). After 10 ml of distilled water for injection was added to the vial, the vial was shaken 20 times (arm length: about 20 centimeters, the amplitude: […] and shaking speed: 20 times/ten seconds), and the dissolution time was measured.
(§1) 300 mg of Compound (I-l) and 150 mg of D-mannitol were mixed with suitable amount of sodium hydroxide. The solutions having various concentration (pH 9.5 to 9.75) were prepared. Thus-obtained solutions were spray dried under the same conditions as Example 1. The dissolution time of the obtained powder was measured by the same method as the above-mentioned Experiment 3. The particle diameter was measured under the following conditions. • Measuring condition of dry powder tester • Dry powder tester: SK Laser micron sizer LMS-30 (SEISHIN ENTERPRISE Co., Ltd.) • Carrier fluid: compressed air […] • Sample: about 20 to 30 mg

[5] = Particle diameter by dry powder tester (SK Laser micron sizer LMS-30); conditions: no PEG, with D-mannitol and NaOH, spray dried
Procedure: The method of measuring “average particle size” used herein is not particularly limited, and measurement may be conducted in accordance with a manual of the particle size meter to be used. For example, about 20 to 30 mg of powder to be measured for its diameter is taken, and placed in the particle size meter for conducting measurement.
as §1

Row | Coloring of powder ([1]; spray dried solution containing only acetaminophen, without adding PEG (control)) | Coloring of powder ([1]; spray dried with PEG4000, PEG adding ratio 0.25, 0.125, 0.06, 0.03 (all samples)) | Bulk density ([2]; solution 1.4% by weight, PEG4000, PEG adding ratio 0.03, spray dried) | Bulk density ([2]; solution 1.4% by weight, without adding PEG, spray dried) | Average of charge ([3]; acetaminophen powder spray dried with PEG4000, PEG adding ratio 0.03) | Average of charge ([3]; acetaminophen powder without adding PEG, ratio 0) | SMILES | Dissolution time ([4]; no PEG, with D-mannitol and NaOH, solution 5% by weight (pH 9.5), spray dried) | Dissolution time ([4]; no PEG, with D-mannitol and NaOH, solution 10% by weight, spray dried) | Dissolution time ([4]; no PEG, with D-mannitol and NaOH, solution 19% by weight (pH 9.75), spray dried) | Dissolution time ([4]; solution before drying 5% by weight, PEG4000, PEG adding ratio 0.37) | Dissolution time ([4]; solution before drying 5% by weight, non-additive, PEG adding ratio 0) | Dissolution time ([4]; solution before drying 19% by weight, PEG400, PEG adding ratio 0.37) | Bulk density ([2]; solution 18% by weight, PEG4000, PEG adding ratio 0.37, spray dried) | Bulk density ([2]; solution 18% by weight, without adding PEG, spray dried) | Electric charge ([3]; Experiment 2; i) non-additive, 3000 particles; ii) PEG4000 + D-mannitol, PEG adding ratio 0.4, 505 particles) | Particle diameter ([5]; solution 5% by weight (pH 9.5)) | Particle diameter ([5]; solution 10% by weight) | Particle diameter ([5]; solution 19% by weight (pH 9.75))
1 | a little coloring | non-coloring | 0.659 g/cc | 0.398 g/cc | −1.43 q/m | −12.86 q/m | CC(=O)Nc1ccc(O)cc1 [Acetaminophen, acetaminophen] | – | – | – | – | – | – | – | – | – | – | – | –
2 | – | – | – | – | – | – | CC1(C)CC[C@]2(C(=O)[O-])CC[C@]3(COC(=O)/C=C/c4cc(O)ccc4NC(=O)/C=C/C(=O)[O-])C(=CC[C@@H]4[C@@]5(C)CCC(=O)C(C)(C)[C@@H]5CC[C@]43C)[C@@H]2C1.[Na+].[Na+] [Compound (I-1)] | 40 s | 10 s | under 20 second | 10 s | 40 s | 10 s | 0.395 g/cc | 0.206 g/cc | −2.57 q/m | 8.9 μm | 10.1 μm | 11.6 μm
